Reference: patent US20240239790A1, “7-Morpholino-1,6-Naphthyridin-5-yl Derivatives and Pharmaceutical Compositions Thereof Useful as DNA-PK Inhibitor” (adMare Therapeutics Society, priority 2021, published 2024)
Like-named read-outs stand apart in the source and are kept apart here.

Experiments:
[1] = test system: pDNA-PK induction in HCT116 tumour spheroids; experiment: Multicellular tumour spheroid + radiation, pDNA-PK (ser2056) inhibition, immunohistochemical endpoint, HCT116; format: cell-based; conditions: Homo sapiens, 20 Gy, 20% O2
Summary of the method: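 HCT116 spheroids (~0.5 mm) in MEM/10% FBS, 20% O2, 37° C., pre-incubated 1 h with compound (10 or 5 μM down to 3.5 nM), irradiated 20 Gy, then 2 h further with compound. Cryosections immunostained for pDNA-PK ser2056; EC50 is concentration halving radiation-induced pDNA-PK.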

[2] = Microsomal Stability Assay, mouse liver microsomes; format: in vitro ADME; conditions: for microsomal CLint at 0.1 uM: male, CD-1, pH 7.4, mouse liver microsomes 0.1 mg/mL, 0.1 uM compound; for Microsomal Stability Mouse % rem. 60 min: mouse liver microsomes
Method: (§1) Samples were then mixed and centrifuged. Supernatants were used for HPLC-MS/MS analysis. […] Peak areas corresponding to the test compound were recorded.

[3] = Microsomal Stability Assay, human liver microsomes; format: in vitro ADME; conditions: for microsomal CLint at 0.1 uM: both sexes, pH 7.4, human liver microsomes 0.1 mg/mL, 0.1 uM compound; for Microsomal Stability Human % rem. 60 min: human liver microsomes
Method: as §1

[4] = Hepatocyte Stability Assay, mouse hepatocytes; format: in vitro ADME; conditions: for hepatocyte CLint at 1 uM: male, CD-1, cryopreserved hepatocytes, pH 7.3, mouse hepatocytes 0.7 million cells per mL, 1 uM compound; for Hepatocyte Stability Mouse % rem. 120 min: mouse hepatocytes
Method: (§2) Cryopreserved mouse hepatocytes were obtained from a pool of 10 or more male CD-1 mice. Cryopreserved human hepatocytes were obtained from a pool of 10 or more donors of mixed gender. Final hepatocyte density was 0.7 million viable cells per mL and test compound concentration was 1 uM with a maximum of 0.01% DMSO. Cryopreserved hepatocytes were thawed, washed, and resuspended in Krebs-Heinslet buffer (pH 7.3). The reaction was initiated by adding the test compound into cell suspension and incubated for 0, […], 1, 1.5, and 2 h, respectively, at 37° C./5% C02. The reaction was stopped by adding acetonitrile into the incubation mixture. Samples were then mixed, transferred completely to another 96-well plate, and centrifuged. Supernatants were used for HPLC-MS/MS analysis. […] Peak areas corresponding to the test compound were recorded.

[5] = Hepatocyte Stability Assay, human hepatocytes; format: in vitro ADME; conditions: for hepatocyte CLint at 1 uM: both sexes, cryopreserved hepatocytes, pH 7.3, human hepatocytes 0.7 million cells per mL, 1 uM compound; for Hepatocyte Stability Human % rem. 120 min: human hepatocytes
Method: as §2

[6] = HCT-116, 2 hours following radiation, Example 9 Study 2, read-out: Spheroid Cell line: HCT116 Immunohistochemical endpoint pDNA-PK inhibition EC50
[7] = HCT-116, Spheroid, Cell Line: HCT115 (so in the source), 2 hours following radiation, Example 7, read-out: EC50, Immunohistochemical endpoint, pDNA-PK inhibition

| SMILES | EC50 [1, 6] | EC50 [1, 7] | microsomal CLint at 0.1 uM [2] | Microsomal Stability Mouse % rem. 60 min [2] | microsomal CLint at 0.1 uM [3] | Microsomal Stability Human % rem. 60 min [3] | hepatocyte CLint at 1 uM [4] | Hepatocyte Stability Mouse % rem. 120 min [4] | hepatocyte CLint at 1 uM [5] | Hepatocyte Stability Human % rem. 120 min [5] | EC50 ([1]; HCT-116, 2 h, spheroids, Example 8, read-out: Cell line: HCT116 Immunohistochemical endpoint pDNA-PK inhibition EC50) |
| --- | --- | --- | --- | --- | --- | --- | --- | --- | --- | --- | --- |
| CC(=O)NCCOc1cnc(N[C@H]2CC[C@@H](Oc3nc(N4CCOCC4)cc4ncccc34)CC2)nc1 [Compound 66] | 1000 to 10000 nM | 1000 to 10000 nM | < 116 µL/min/mg | G (% remaining = 50-75%) | > 116 µL/min/mg | F (% remaining = 25-50%) | < 8.2 µL/min/1e6 cells | F (% remaining = 25-50%) | < 8.2 µL/min/1e6 cells | G (% remaining = 50-75%) | – |
| CNC(=O)COc1cnc(N[C@H]2CC[C@@H](Oc3nc(N4CCOCC4)cc4ncccc34)CC2)nc1 [Compound 71, N-Methyl-2-((2-(((1s,4s)-4-((7-morpholino-1,6-naphthyridin-5-yl)oxy)cyclohexyl)amino)pyrimidin-5-yl)oxy)acetamide] | 10 to 500 nM | 10 to 500 nM | < 116 µL/min/mg | G (% remaining = 50-75%) | < 116 µL/min/mg | F (% remaining = 25-50%) | < 8.2 µL/min/1e6 cells | G (% remaining = 50-75%) | < 8.2 µL/min/1e6 cells | G (% remaining = 50-75%) | – |
| NCCOc1cnc(N[C@H]2CC[C@@H](Oc3nc(N4CCOCC4)cc4ncccc34)CC2)nc1 [Compound 65, 5-(2-Aminoethoxy)-N-((1s,4s)-4-((7-morpholino-1,6-naphthyridin-5-yl)oxy)cyclohexyl)pyrimidin-2-amine] | 1000 to 10000 nM | 1000 to 10000 nM | < 116 µL/min/mg | G (% remaining = 50-75%) | > 116 µL/min/mg | G (% remaining = 50-75%) | < 8.2 µL/min/1e6 cells | G (% remaining = 50-75%) | < 8.2 µL/min/1e6 cells | F (% remaining = 25-50%) | – |
| CN1CCN(CCOc2cnc(N[C@H]3CC[C@@H](Oc4nc(N5CCOCC5)cc5ncccc45)CC3)nc2)CC1 [Compound 69, 5-(2-(4-Methylpiperazin-1-yl)ethoxy)-N-((1s,4s)-4-((7-morpholino-1,6-naphthyridin-5-yl)oxy)cyclohexyl)pyrimidin-2-amine] | 1000 to 10000 nM | 1000 to 10000 nM | > 116 µL/min/mg | F (% remaining = 25-50%) | < 116 µL/min/mg | G (% remaining = 50-75%) | < 8.2 µL/min/1e6 cells | H (% remaining = 75-100%) | < 8.2 µL/min/1e6 cells | G (% remaining = 50-75%) | – |
| CN(C)CCOc1cnc(N[C@H]2CC[C@@H](Oc3nc(N4CCOCC4)cc4ncccc34)CC2)nc1 [Compound 64, 5-(2-(Dimethylamino)ethoxy)-N-((1s,4s)-4-((7-morpholino-1,6-naphthyridin-5-yl)oxy)cyclohexyl)pyrimidin-2-amine] | 10 to 500 nM | 10 to 500 nM | < 116 µL/min/mg | G (% remaining = 50-75%) | < 116 µL/min/mg | H (% remaining = 75-100%) | < 8.2 µL/min/1e6 cells | G (% remaining = 50-75%) | – | – | 10 to 500 nM |
| c1cnc2cc(N3CCOCC3)nc(O[C@H]3CC[C@@H](Nc4ncc(OCCN5CCOCC5)cn4)CC3)c2c1 [Compound 68, N-((1s,4s)-4-((7-Morpholino-1,6-naphthyridin-5-yl)oxy)cyclohexyl)-5-(2-morpholinoethoxy)pyrimidin-2-amine] | 500 to 1000 nM | 500 to 1000 nM | < 116 µL/min/mg | F (% remaining = 25-50%) | – | – | < 8.2 µL/min/1e6 cells | G (% remaining = 50-75%) | > 8.2 µL/min/1e6 cells | F (% remaining = 25-50%) | – |

Continued, values first:

| EC50 [1, 6] | EC50 [1, 7] | microsomal CLint at 0.1 uM [2] | Microsomal Stability Mouse % rem. 60 min [2] | microsomal CLint at 0.1 uM [3] | Microsomal Stability Human % rem. 60 min [3] | hepatocyte CLint at 1 uM [4] | Hepatocyte Stability Mouse % rem. 120 min [4] | hepatocyte CLint at 1 uM [5] | Hepatocyte Stability Human % rem. 120 min [5] | EC50 ([1]; HCT-116, 2 h, spheroids, Example 8, read-out: Cell line: HCT116 Immunohistochemical endpoint pDNA-PK inhibition EC50) | SMILES |
| --- | --- | --- | --- | --- | --- | --- | --- | --- | --- | --- | --- |
| – | 10 to 500 nM | < 116 µL/min/mg | G (% remaining = 50-75%) | < 116 µL/min/mg | G (% remaining = 50-75%) | < 8.2 µL/min/1e6 cells | G (% remaining = 50-75%) | < 8.2 µL/min/1e6 cells | G (% remaining = 50-75%) | – | CN(C)C(=O)Cn1ccc(C(=O)N[C@H]2CC[C@@H](Oc3nc(N4CCOCC4)cc4ncccc34)CC2)c1 [Compound 141, 1-(2-(dimethylamino)-2-oxoethyl)-N-((1s,4s)-4-((7-morpholino-1,6-naphthyridin-5-yl)oxy)cyclohexyl)-1H-pyrrole-3-carboxamide] |
| 10 to 500 nM | 10 to 500 nM | < 116 µL/min/mg | G (% remaining = 50-75%) | < 116 µL/min/mg | G (% remaining = 50-75%) | < 8.2 µL/min/1e6 cells | H (% remaining = 75-100%) | < 8.2 µL/min/1e6 cells | H (% remaining = 75-100%) | – | CN(C)C(=O)COc1cnc(N[C@H]2CC[C@@H](Oc3nc(N4CCOCC4)cc4ncc(NS(C)(=O)=O)cc34)CC2)nc1 [Compound 182, N,N-dimethyl-2-((2-(((1s,4s)-4-((3-(methylsulfonamido)-7-morpholino-1,6-naphthyridin-5-yl)oxy)cyclohexyl)amino)pyrimidin-5-yl)oxy)acetamide] |
| 10 to 500 nM | 10 to 500 nM | – | – | – | – | < 8.2 µL/min/1e6 cells | G (% remaining = 50-75%) | > 8.2 µL/min/1e6 cells | F (% remaining = 25-50%) | – | O=C(Cn1c(=O)n(C2CCOCC2)c2nc(N[C@H]3CC[C@@H](Oc4nc(N5CCOCC5)cc5ncccc45)CC3)ncc21)N1CCOCC1 [Compound 98, 2-(((1s,4s)-4-((7-Morpholino-1,6-naphthyridin-5-yl)oxy)cyclohexyl)amino)-7-(2-morpholino-2-oxoethyl)-9-(tetrahydro-2H-pyran-4-yl)-7,9-dihydro-8H-purin-8-one] |
| 10 to 500 nM | 10 to 500 nM | – | – | – | – | < 8.2 µL/min/1e6 cells | H (% remaining = 75-100%) | < 8.2 µL/min/1e6 cells | H (% remaining = 75-100%) | – | O=S(=O)(CF)Nc1cnc2cc(N3CCOCC3)nc(O[C@H]3CC[C@@H](Nc4ncccn4)CC3)c2c1 [Compound 192, 1-fluoro-N-(7-morpholino-5-(((1s,4s)-4-(pyrimidin-2-ylamino)cyclohexyl)oxy)-1,6-naphthyridin-3-yl)methanesulfonamide] |
| 10 to 500 nM | 10 to 500 nM | – | – | – | – | > 8.2 µL/min/1e6 cells | F (% remaining = 25-50%) | > 8.2 µL/min/1e6 cells | F (% remaining = 25-50%) | – | Cn1c(=O)n(C)c2nc(N[C@H]3CC[C@@H](Oc4nc(N5CCOCC5)cc5ncccc45)CC3)ncc21 [Compound 101, 7,9-Dimethyl-2-(((1s,4s)-4-((7-morpholino-1,6-naphthyridin-5-yl)oxy)cyclohexyl)amino)-7,9-dihydro-8H-purin-8-one] |
